Data on 1 molecule can be found in US9234018B2, “Compositions and methods for the treatment of VprBP-related cancers” (University of Southern California, priority 2013, dated 2016).

For series [1], the target named is STK33 (Homo sapiens, UniProt Q9BYT3). As to the kind of experiment: Kinase selectivity panel. The series is classed as biochemical.
The target in series [2] is BUB1 (Homo sapiens, UniProt O43683). The series can be described thus: Kinase selectivity panel. The format is biochemical.
Series [3] addresses CDK2 (Homo sapiens, UniProt P24941). As to the kind of experiment: Kinase selectivity panel. The format is biochemical.
The subject of series [4] is MLC cells. The series can be described thus: Cell viability by MTT assay in normal cells. The format is cell-based. The settings on record: concentrations up to 5 mM, 24 h; cells lacking VprBP-mediated H2AT120p. On the procedure:
FIGS. 8A-8I show characterization of B32B3 as a small-molecule VprBP kinase inhibitor, related to FIG. 4. (FIG. 8A) DU145 cells were infected with mock lentiviruse, VprBP-expressing shRNA lentivirus or Flag-VprBP-expressing lentivirus, and treated with the indicated concentrations of B32B3 for 24 h. Changes in H2AT120p as the results of B32B3 treatment were determined by the quantitative estimates of Western band intensity. Results represent the means±S.D. of three independent experiments. (FIG. 8B) DU145 cells were treated with the indicated concentrations of B32B3 and B20H6 for 72 h. Cell viability was measured by the MTT assay and was normalized to cells not exposed to the compounds. Data represent the means±S.D. of three independent experiments. […] (FIG. 8D) MLC cells were treated with B32B3 at the indicated doses for 24 h, and cell viability was assessed by MTT assay. […] (FIG. 8E) VprBP-mediated H2AT120p was analyzed in the presence of increasing concentrations of ATP and B32B3. (FIG. 8F) Body weights of vehicle or B32B3-treated mice were monitored during the treatment period. […] The stability of B32B3 in plasma was determined by LC-MS/MS at the indicated time points. […] Blood samples were collected at the indicated time points, and the concentration of B32B3 in plasma was analyzed by HPLC coupled mass spectrophotometry. […]
(In general: Tetrazolium assays rely on reduction of a dye to a coloured formazan, in cell work by metabolically active cells.)

Series [5] can be described thus: Mouse pharmacokinetics of B32B3. The series is classed as in vivo. To be noted: plasma, dose of 5 mg/kg in mice. How it is done:
Mouse pharmacokinetic study was carried out using mice (n=5) that were fasted for 12 h prior to and 2 h after dosing with B32B3 (5 mg/kg). Blood samples were collected from orbital sinus at 10, 30, 60, 120, 240, and 480 min post dose. The plasma was separated from blood samples by centrifugation and analyzed in the Agilent 1200 HPLC system coupled to Agilent 6460A QQQ mass spectrophotometer. The plasma concentration-time data were analyzed by noncompartmental analysis using WinNonlin version 4.1 (Pharsight).

In series [6] the target is DNAPK (Homo sapiens, UniProt P78527). The series can be described thus: Kinase selectivity panel. The format is biochemical.
The target in series [7] is CHK1 (Homo sapiens, UniProt O14757). The series can be described thus: Kinase selectivity panel. The series is classed as biochemical.
Series [8] addresses VRK2 (Homo sapiens, UniProt Q86Y07). The series can be described thus: Kinase selectivity panel. The series is classed as biochemical.
In series [9] the target is PLK2 (Homo sapiens, UniProt Q9NYY3). The series can be described thus: Kinase selectivity panel. The series is classed as biochemical.
The target in series [10] is CDK9 (Homo sapiens, UniProt P50750). As to the kind of experiment: Kinase selectivity panel. The series is classed as biochemical.
Series [11] deals with CHK2 (Homo sapiens, UniProt O96017). As to the kind of experiment: Kinase selectivity panel. The series is classed as biochemical.
For series [12], the target named is RSK3 (Homo sapiens, UniProt Q15349). The series can be described thus: Kinase selectivity panel. The series is classed as biochemical.
Series [13] deals with ATR (Homo sapiens, UniProt Q13535). The series can be described thus: Kinase selectivity panel. The format is biochemical.
In series [14] the test system is DU145 tumor xenografts. The series can be described thus: DU145 tumor xenografts in nude mice. The format is in vivo. How it is done:
All animal experiments were performed according to protocols approved by the Institutional Animal Care and Use Committee. Tumor xenografts were established by subcutaneous injection of 1 3 107 DU145 cells into 8-weekold female nude mice (n=8). At day 5 after injection, the mice bearing DU145 tumor xenografts were treated with twice-weekly i.p. injections of either DMSO or B32B3 at a dose of 5 mg/kg throughout the duration of the experiment. Tumor dimension was measured by calipers twice a week, and tumor mass was calculated as described (Heo, K. et al. (2012) Oncogene 32:2510-2520). The mice were killed by asphyxiation with CO2, and tumors were excised and weighed 25 day after the cell injection. To analyze the H2AT120p, formalin-fixed and paraffin-embedded sections ([…]) from DU145 tumor xenografts were subject to immunohistochemistry. Animal studies were conducted under approved institutional protocols.

The target in series [15] is LCK (Homo sapiens, UniProt P06239). As to the kind of experiment: Kinase selectivity panel. The format is biochemical.
Series [16] has as its target DYRK1 (Homo sapiens, UniProt Q13627). The series can be described thus: Kinase selectivity panel. The format is biochemical.

Sequence of RSK3 (Q15349 whole entry): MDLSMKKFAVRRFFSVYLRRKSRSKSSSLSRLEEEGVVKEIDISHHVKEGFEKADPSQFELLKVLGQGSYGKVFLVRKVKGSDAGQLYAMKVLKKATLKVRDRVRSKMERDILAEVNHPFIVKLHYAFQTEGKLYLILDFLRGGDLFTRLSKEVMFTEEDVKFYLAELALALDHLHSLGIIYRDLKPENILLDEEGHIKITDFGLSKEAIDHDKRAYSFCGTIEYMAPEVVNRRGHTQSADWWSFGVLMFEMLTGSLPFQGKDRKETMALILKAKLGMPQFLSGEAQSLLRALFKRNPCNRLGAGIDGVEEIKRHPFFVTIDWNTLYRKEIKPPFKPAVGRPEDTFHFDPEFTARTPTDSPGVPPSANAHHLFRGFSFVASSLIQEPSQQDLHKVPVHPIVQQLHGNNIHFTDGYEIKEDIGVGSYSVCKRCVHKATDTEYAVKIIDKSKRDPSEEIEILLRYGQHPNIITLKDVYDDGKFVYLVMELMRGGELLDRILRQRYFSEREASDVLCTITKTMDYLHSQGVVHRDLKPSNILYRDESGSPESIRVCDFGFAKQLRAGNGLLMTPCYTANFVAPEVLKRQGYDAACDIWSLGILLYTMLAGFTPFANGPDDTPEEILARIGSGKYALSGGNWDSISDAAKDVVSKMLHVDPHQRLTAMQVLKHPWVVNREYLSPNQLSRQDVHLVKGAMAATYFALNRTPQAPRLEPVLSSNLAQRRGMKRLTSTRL
Sequence of STK33 (Q9BYT3 whole entry): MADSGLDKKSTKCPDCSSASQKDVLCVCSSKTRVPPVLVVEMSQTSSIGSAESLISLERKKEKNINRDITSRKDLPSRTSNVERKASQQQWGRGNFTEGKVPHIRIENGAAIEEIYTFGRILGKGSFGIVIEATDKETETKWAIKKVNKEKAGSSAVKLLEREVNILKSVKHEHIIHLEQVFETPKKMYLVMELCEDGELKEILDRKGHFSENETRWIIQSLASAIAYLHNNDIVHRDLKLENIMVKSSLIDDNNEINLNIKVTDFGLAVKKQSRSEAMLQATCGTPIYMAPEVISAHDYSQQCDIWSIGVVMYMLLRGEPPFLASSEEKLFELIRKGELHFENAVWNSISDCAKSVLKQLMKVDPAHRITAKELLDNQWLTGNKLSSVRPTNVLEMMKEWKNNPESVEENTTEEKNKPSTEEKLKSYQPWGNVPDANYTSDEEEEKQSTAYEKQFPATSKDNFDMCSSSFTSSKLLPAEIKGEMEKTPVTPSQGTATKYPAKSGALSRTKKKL
Sequence of CDK9 (P50750 whole entry): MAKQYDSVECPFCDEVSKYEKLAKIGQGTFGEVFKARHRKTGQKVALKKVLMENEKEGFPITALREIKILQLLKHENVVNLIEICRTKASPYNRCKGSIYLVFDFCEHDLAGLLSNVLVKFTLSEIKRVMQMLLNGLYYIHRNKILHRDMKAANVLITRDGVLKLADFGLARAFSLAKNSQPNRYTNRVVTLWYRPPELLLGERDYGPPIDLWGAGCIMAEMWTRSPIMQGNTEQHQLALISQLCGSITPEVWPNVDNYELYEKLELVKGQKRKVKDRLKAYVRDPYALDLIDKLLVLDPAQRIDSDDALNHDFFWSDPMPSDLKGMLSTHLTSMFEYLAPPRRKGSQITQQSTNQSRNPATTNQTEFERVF
Sequence of CDK9 (O60563 whole entry partner): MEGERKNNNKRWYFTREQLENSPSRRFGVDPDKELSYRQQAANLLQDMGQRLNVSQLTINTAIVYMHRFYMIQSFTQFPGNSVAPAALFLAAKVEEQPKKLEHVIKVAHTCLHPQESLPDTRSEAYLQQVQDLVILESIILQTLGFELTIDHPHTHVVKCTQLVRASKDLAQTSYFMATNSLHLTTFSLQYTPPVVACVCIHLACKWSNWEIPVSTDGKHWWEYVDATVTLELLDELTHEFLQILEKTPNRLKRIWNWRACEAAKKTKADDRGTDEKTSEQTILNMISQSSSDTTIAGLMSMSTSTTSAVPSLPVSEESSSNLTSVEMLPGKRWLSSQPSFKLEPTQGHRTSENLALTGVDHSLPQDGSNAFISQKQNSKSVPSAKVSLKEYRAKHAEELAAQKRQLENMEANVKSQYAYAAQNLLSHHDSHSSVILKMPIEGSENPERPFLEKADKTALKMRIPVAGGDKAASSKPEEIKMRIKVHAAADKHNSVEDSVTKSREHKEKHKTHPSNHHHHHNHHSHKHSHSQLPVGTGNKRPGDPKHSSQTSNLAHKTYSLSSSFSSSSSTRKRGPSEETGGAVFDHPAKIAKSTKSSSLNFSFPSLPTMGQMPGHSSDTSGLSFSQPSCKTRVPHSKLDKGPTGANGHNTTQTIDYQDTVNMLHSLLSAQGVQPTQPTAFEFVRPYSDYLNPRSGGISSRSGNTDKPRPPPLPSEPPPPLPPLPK
Sequence of VRK2 (Q86Y07 whole entry): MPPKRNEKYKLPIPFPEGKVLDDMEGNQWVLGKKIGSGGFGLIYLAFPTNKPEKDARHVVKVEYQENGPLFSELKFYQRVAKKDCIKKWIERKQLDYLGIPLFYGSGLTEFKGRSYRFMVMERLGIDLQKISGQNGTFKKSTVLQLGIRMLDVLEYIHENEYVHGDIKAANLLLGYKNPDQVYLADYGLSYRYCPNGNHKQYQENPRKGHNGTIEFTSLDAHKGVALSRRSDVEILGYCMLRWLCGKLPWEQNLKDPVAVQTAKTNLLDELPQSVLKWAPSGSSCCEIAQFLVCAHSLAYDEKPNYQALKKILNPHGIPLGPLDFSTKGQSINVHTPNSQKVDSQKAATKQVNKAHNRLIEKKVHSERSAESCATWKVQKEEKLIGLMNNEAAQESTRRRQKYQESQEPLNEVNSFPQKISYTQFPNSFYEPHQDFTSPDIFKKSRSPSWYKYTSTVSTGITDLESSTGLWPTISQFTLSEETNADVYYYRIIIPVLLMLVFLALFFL
Sequence of PLK2 (Q9NYY3 whole entry): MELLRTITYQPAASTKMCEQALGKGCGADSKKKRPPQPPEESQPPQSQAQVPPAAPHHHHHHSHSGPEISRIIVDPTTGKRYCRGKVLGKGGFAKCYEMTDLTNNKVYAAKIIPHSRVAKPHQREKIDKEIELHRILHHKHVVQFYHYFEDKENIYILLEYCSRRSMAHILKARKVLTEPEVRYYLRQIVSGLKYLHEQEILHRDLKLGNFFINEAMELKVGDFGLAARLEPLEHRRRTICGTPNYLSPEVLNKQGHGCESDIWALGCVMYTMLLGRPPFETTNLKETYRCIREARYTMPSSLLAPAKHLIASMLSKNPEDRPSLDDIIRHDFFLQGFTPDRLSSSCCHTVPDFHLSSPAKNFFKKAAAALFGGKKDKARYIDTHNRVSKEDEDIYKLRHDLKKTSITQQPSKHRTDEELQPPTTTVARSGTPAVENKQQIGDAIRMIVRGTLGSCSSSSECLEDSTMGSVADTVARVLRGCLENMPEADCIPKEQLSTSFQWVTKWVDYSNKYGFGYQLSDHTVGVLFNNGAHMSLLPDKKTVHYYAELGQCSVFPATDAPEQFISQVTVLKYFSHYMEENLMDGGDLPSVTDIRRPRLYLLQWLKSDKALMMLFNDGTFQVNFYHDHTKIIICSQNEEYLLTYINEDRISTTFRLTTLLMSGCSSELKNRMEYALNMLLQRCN
Sequence of LCK (P06239 whole entry): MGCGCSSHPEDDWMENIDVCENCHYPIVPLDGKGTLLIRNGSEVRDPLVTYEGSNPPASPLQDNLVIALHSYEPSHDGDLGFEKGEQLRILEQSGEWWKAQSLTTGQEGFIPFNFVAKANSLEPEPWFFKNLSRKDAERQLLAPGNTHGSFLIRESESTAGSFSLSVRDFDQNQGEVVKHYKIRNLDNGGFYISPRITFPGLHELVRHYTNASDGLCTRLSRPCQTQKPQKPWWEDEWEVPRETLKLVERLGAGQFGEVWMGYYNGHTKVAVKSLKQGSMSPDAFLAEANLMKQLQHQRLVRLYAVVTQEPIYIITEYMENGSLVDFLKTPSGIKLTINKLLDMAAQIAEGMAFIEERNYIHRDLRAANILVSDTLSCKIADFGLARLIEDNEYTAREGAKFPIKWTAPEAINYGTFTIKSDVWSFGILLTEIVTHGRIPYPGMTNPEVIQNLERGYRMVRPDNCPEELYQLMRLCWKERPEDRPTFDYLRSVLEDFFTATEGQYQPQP
Sequence of CHK1 (O14757 whole entry): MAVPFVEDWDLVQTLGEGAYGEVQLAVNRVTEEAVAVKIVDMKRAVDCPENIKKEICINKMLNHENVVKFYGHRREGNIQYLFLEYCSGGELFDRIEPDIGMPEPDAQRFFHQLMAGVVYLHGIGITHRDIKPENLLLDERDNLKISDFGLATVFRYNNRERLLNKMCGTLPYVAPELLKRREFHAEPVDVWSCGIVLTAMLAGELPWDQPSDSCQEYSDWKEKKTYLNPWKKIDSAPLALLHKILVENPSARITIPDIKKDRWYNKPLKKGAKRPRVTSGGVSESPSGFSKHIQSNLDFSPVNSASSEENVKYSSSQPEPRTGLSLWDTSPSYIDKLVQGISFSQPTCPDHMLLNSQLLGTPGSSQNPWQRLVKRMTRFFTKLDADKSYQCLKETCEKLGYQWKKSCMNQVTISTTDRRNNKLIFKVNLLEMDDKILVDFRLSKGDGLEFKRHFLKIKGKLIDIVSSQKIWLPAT

What is called IC50 is the concentration that gives 50% inhibition. High values mean a need for much substance, low ones inhibition by little substance. The Cmax is the peak of the concentration-time curve. As for `c1ccc2c(CNNc3ncnc4sc5c(c34)CCCC5)c[nH]c2c1` [B32B3], the IC50 in series [1], in series [2], in series [3], in series [6], in series [7] and in series [8] was above 10 µM in each case. In addition, the half-maximal inhibitory concentration (IC50) in series [9], in series [10], in series [11], in [12], in series [13] and in [15] was above 10 µM in each case. The IC50 in series [16] was above 10 µM. Further, the “Effect on proliferation of MLC cells” value in series [4] was “minimally antagonized”. This molecule showed a Cmax in [5] of 1000 nM. In series [14] (5 mg/kg i.p. twice a week over 3 weeks, calculated the day after the last treatment), the Tumor growth inhibition is listed as 70%-75%. The “Body weight loss during treatment” value in series [14] (5 mg/kg i.p. twice weekly) is on record as “did not cause any significant weight loss”. For the same molecule, the Tolerability in mice result in series [14] (5 mg/kg i.p. twice weekly) is on record as “well tolerated”. In series [14] (compared to DMSO-treated controls), the “Levels of H2AT120p in xenograft tumors (immunohistochemistry)” value is reported as “greatly decreased”.
